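Growth conditions: 96-well plates. Treatment: test compound, 48 hours, 5 concentrations. Analysis: linear interpolation between bracketing concentrations; unreached endpoints set to highest concentration. The concentration for 50% growth inhibition is given as GI50. Definition used: TGI = concentration required for complete inhibition of growth.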 *1 amine or outer side, *2 acyl side, *3 side chain or, on linkers, in order; H or OH if unused. Where a SMILES comes first, the peptide text is derived from it. Bridges are numbered along the chain shown (N, C = ends). Roman numbers before positions name the chains, in order. [ ]: non-standard residue; d: D form. Actinocin(9to1) = Cc1c2oc3c(C)ccc(C(=O)[*:1])c3nc-2c(C(=O)[*:2])c(N)c1=O; NMeH = CN[CH](Cc1c[nH]cn1)C(=O)O; Sar = CNCC(=O)O

Results on 13 molecules are retold here after PubChem BioAssay (NCI).

Among the test systems are HCT-15 colon; UO-31 renal; CAKI-1 renal; SN12C renal; PC-3 prostate; OVCAR-8 ovarian; OVCAR-5 ovarian; DU-145 prostate; MALME-3M melanoma; NCI-H460 lung.
Assay in all cases: NCI-60 cell line screen, 48 h

In the case of `C#C[C@]1(O)CC[C@H]2[C@@H]3CCC4=C/C(=N/NC(=O)c5cccc6c(=O)c7ccccc7[nH]c56)CCC4[C@H]3CC[C@@]21C` (stereo not given in full), the TGI is over 100 µM with HCT-15 colon; 76.5 µM in the assay with UO-31 renal; over 100 µM in the assay on CAKI-1 renal; over 100 µM with SN12C renal; over 100 µM in the assay on PC-3 prostate; over 100 µM in the assay on OVCAR-8 ovarian. Besides, the TGI was over 100 µM with OVCAR-5 ovarian, over 100 µM with DU-145 prostate and 68.1 µM in the assay on MALME-3M melanoma.

Turning to `CN1/C(=C/C=C/C=C/C=C2C(=O)c3ccccc3C2=O)C(C)(C)c2ccccc21`, the TGI in the assay on HCT-15 colon, in the assay with UO-31 renal, with CAKI-1 renal, with SN12C renal, in the assay with OVCAR-8 ovarian and in the assay with OVCAR-5 ovarian was over 100 µM throughout. The results for the TGI in the assay with DU-145 prostate, with NCI-H460 lung and in the assay on MALME-3M melanoma were over 100 µM, over 100 µM and 94.1 µM, respectively.

For `N#Cc1nc2cc(Cl)ccc2nc1N1CCN(c2ccc([N+](=O)[O-])cc2)CC1`, the TGI with HCT-15 colon, with UO-31 renal, with CAKI-1 renal, with SN12C renal, in the assay on PC-3 prostate and with OVCAR-8 ovarian was over 100 µM in each case. The TGI in the assay with OVCAR-5 ovarian, with DU-145 prostate and in the assay on NCI-H460 lung was over 100 µM each time.

As for `Cc1c2oc3c(C)ccc(C(=O)NC4C(=O)NC(C(C)C)C(=O)N5CCCC5C(=O)N(C)CC(=O)N(C)C(Cc5cnc[nH]5)C(=O)OC4C)c3nc-2c(C(=O)NC2C(=O)NC(C(C)C)C(=O)N3CCCC3C(=O)N(C)CC(=O)N(C)C(Cc3cnc[nH]3)C(=O)OC2C)c(N)c1=O` (stereo not given) (I: TVP[Sar][NMeH] / II: TVP[Sar][NMeH]; ester I:1-I:C, II:1-II:C; linker I:N-II:N via Actinocin(9to1); configuration not given here), the TGI in the assay with HCT-15 colon, with UO-31 renal, with CAKI-1 renal, with SN12C renal, with PC-3 prostate and in the assay on OVCAR-8 ovarian was over 100 µM each time. Besides, the TGI in the assay with OVCAR-5 ovarian, in the assay with NCI-H460 lung and in the assay on MALME-3M melanoma was over 100 µM each time.

For the molecule `NCCCN(CCCCN(CCCN)C(=O)OCc1ccccc1)C(=O)OCc1ccccc1`, the TGI with HCT-15 colon, in the assay on UO-31 renal, with CAKI-1 renal, with SN12C renal, in the assay with PC-3 prostate and in the assay with OVCAR-8 ovarian was over 100 µM each time. Besides, the TGI with OVCAR-5 ovarian, in the assay with DU-145 prostate and in the assay on NCI-H460 lung was over 100 µM throughout.

Consider `CN1CCN(Cc2c[nH]c3c2C(=O)c2c(c(O)c4ccccc4c2O)C3=O)CC1`, for which the GI50 in the assay with HCT-15 colon was 3.46 µM; in the assay on UO-31 renal, 11.2 µM; in the assay with CAKI-1 renal, 3.16 µM; with SN12C renal it was 10.3 µM; in the assay with PC-3 prostate, 5.53 µM; in the assay with OVCAR-8 ovarian, 6.34 µM. The figures for the GI50 in the assay on OVCAR-5 ovarian, in the assay on NCI-H460 lung and in the assay on MALME-3M melanoma were 18.1 µM, 5.42 µM and 12.7 µM, respectively. In addition, the TGI with HCT-15 colon amounted to 15.6 µM; in the assay with UO-31 renal, 32.4 µM; in the assay with CAKI-1 renal it was 18.8 µM; with SN12C renal, 21.9 µM; in the assay on PC-3 prostate, 21.6 µM; in the assay on OVCAR-8 ovarian, 26 µM. Further, the TGI is 33.6 µM in the assay on OVCAR-5 ovarian, 17.9 µM in the assay with NCI-H460 lung and 29.3 µM with MALME-3M melanoma.

For `CC1=NN(c2cccc(Cl)c2)C2(C1=Cc1ccc(O)cc1)C(Cl)C(=O)N2c1nc2ccccc2s1` (stereo not given), the TGI in the assay on HCT-15 colon was 32.1 µM; in the assay on UO-31 renal it was 30.6 µM; in the assay with CAKI-1 renal, 85.6 µM; with PC-3 prostate, 51.9 µM; with OVCAR-8 ovarian, 87.8 µM; with OVCAR-5 ovarian, over 100 µM. The TGI came to 67.9 µM with DU-145 prostate and 89.3 µM in the assay on NCI-H460 lung.

Consider `CCc1cccc2c3c([nH]c12)-c1ccccc1NC(=O)C3`, for which the TGI in the assay with HCT-15 colon, in the assay with UO-31 renal, with CAKI-1 renal, in the assay on SN12C renal, with OVCAR-8 ovarian and in the assay with OVCAR-5 ovarian was over 100 µM in each case. The TGI with DU-145 prostate and in the assay on NCI-H460 lung was over 100 µM each time.

Consider `COc1ccc(-n2c(=O)c3[nH]c(=S)[nH]c3n(-c3ccc(OC)cc3)c2=S)cc1`, for which the TGI in the assay on HCT-15 colon, in the assay with UO-31 renal, in the assay with CAKI-1 renal, with SN12C renal, in the assay with PC-3 prostate and with OVCAR-8 ovarian was over 100 µM throughout. Also, the TGI in the assay on OVCAR-5 ovarian, in the assay on DU-145 prostate and with NCI-H460 lung was over 100 µM throughout.

For the molecule `ClC(Cl)(Cl)C1CCOC1n1nnc2ccccc21` (stereo not given), the TGI in the assay with CAKI-1 renal, in the assay on SN12C renal, in the assay with PC-3 prostate, with OVCAR-8 ovarian, in the assay with OVCAR-5 ovarian and in the assay on DU-145 prostate was over 100 µM throughout. The TGI with MALME-3M melanoma is over 100 µM.

Consider `CC(C(=O)OCc1ccccc1)N(Cc1ccccc1)Cc1ccccc1` (stereo not given), for which the TGI in the assay with HCT-15 colon, in the assay on UO-31 renal, in the assay on CAKI-1 renal, in the assay on SN12C renal, with OVCAR-8 ovarian and in the assay with OVCAR-5 ovarian was over 100 µM throughout. For the same molecule, the TGI in the assay with NCI-H460 lung and in the assay with MALME-3M melanoma was over 100 µM throughout.

With `COc1ccccc1OCC(COC(=O)Nc1ccccc1)OC(=O)Nc1ccccc1` (stereo not given), the TGI with HCT-15 colon, with UO-31 renal, with CAKI-1 renal, in the assay on SN12C renal, in the assay with OVCAR-8 ovarian and in the assay with OVCAR-5 ovarian was over 100 µM throughout. The TGI in the assay on NCI-H460 lung and in the assay on MALME-3M melanoma was over 100 µM each time.

For the molecule `NS(=O)(=O)c1nc(S(=O)(=O)O)c2[nH]cnc2n1`, the TGI in the assay with HCT-15 colon, in the assay with UO-31 renal, in the assay with CAKI-1 renal, with SN12C renal, in the assay with PC-3 prostate and with OVCAR-8 ovarian was over 100 µM in each case. Besides, the TGI in the assay with OVCAR-5 ovarian, in the assay with NCI-H460 lung and with MALME-3M melanoma was over 100 µM in each case.
